What was measured:
Format in all cases: cell-based
Pseudomonas aeruginosa = assay: MIC against Gram-negative bacteria: Pseudomonas aeruginosa; conditions: 5×10^5 CFU/mL
Outline: (§1)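 Read-out is absence of bacterial growth, with MIC set at the lowest recombinant protein concentration achieving it. Bacteria, pre-grown in LB to McFarland 0.5 and resuspended, were exposed at 5×10^5 CFU/mL to two-fold diluted human EGF domain proteins in triplicate at 37° C, 175 rpm.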

Citrobacter diversus = assay: MIC against Gram-negative bacteria: Citrobacter diversus; conditions: 5×10^5 CFU/mL
Outline: as §1

Klebsiella pneumonia = assay: MIC against Gram-negative bacteria: Klebsiella pneumonia; conditions: 5×10^5 CFU/mL
Outline: as §1

E. coli BL21 = assay: MIC against Gram-negative bacteria: E. coli BL21; conditions: 5×10^5 CFU/mL
Outline: as §1

Aeromonas hydrophila = assay: MIC against Gram-negative bacteria: Aeromonas hydrophila; conditions: 5×10^5 CFU/mL
Outline: as §1

E. coli DH5α = assay: Antibacterial activity: MIC and growth curve against E. coli DH5α in 96-well plate; conditions: minimal inhibitory concentration against E. coli DH5α; 96-well plate, 5×10^5 CFU/mL, 37° C., judged after 8 h
Outline: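 MIC taken as lowest protein level with no bacterial growth, tracked by A600 every 30 min during 37 °C, 175 rpm culture. Two-fold protein series 50-12.5 μg/mL final, triplicate wells, against 5×10^5 CFU/mL of LB-washed mid-log cells.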

Proteus mirabilis = assay: MIC against Gram-negative bacteria: Proteus mirabilis; conditions: 5×10^5 CFU/mL
Outline: as §1

Proteus vulgaris = assay: MIC against Gram-negative bacteria: Proteus vulgaris; conditions: 5×10^5 CFU/mL
Outline: as §1

Serratia marcescens = assay: MIC against Gram-negative bacteria: Serratia marcescens; conditions: 5×10^5 CFU/mL
Outline: as §1

Moraxella catarrhalis = assay: MIC against Gram-negative bacteria: Moraxella catarrhalis; conditions: 5×10^5 CFU/mL
Outline: as §1

Enterobacter cloacae = assay: MIC against Gram-negative bacteria: Enterobacter cloacae; conditions: 5×10^5 CFU/mL
Outline: as §1

[1] = Pseudomonas aeruginosa, 96-well plate, 37° C., 10 h
[2] = Citrobacter diversus, 96-well plate, 37° C., 10 h
[3] = Klebsiella pneumonia, 96-well plate, 37° C., 10 h
[4] = E. coli BL21, 96-well plate, 37° C., 10 h
[5] = Aeromonas hydrophila, 96-well plate, 37° C., 10 h
[6] = Proteus mirabilis, 96-well plate, 37° C., 10 h
[7] = Proteus vulgaris, 96-well plate, 37° C., 10 h
[8] = Serratia marcescens, 96-well plate, 37° C., 10 h
[9] = Moraxella catarrhalis, 96-well plate, 37° C., 10 h
[10] = Enterobacter cloacae, 96-well plate, 37° C., 10 h
[11] = Pseudomonas aeruginosa, 10 h cultivation at 37° C.
[12] = Citrobacter diversus, 10 h cultivation at 37° C.
[13] = Klebsiella pneumonia, 10 h cultivation at 37° C.
[14] = E. coli BL21, 10 h cultivation at 37° C.
[15] = Aeromonas hydrophila, 10 h cultivation at 37° C.
[16] = Proteus mirabilis, 10 h cultivation at 37° C.
[17] = Proteus vulgaris, 10 h cultivation at 37° C.
[18] = Serratia marcescens, 10 h cultivation at 37° C.
[19] = Moraxella catarrhalis, 10 h cultivation at 37° C.
[20] = Enterobacter cloacae, 10 h cultivation at 37° C.
[21] = 10 h cultivation at 37° C., two-fold serial dilution

Substance | MIC against P. aeruginosa (Pseudomonas aeruginosa; [1]) | MIC against C. diversus (Citrobacter diversus; [2]) | MIC against K. pneumonia (Klebsiella pneumonia; [3]) | MIC against E. coli BL21 (E. coli BL21; [4]) | MIC against A. hydrophila (Aeromonas hydrophila; [5]) | MIC (E. coli DH5α) | MIC against P. mirabilis (Proteus mirabilis; [6]) | MIC against P. vulgaris (Proteus vulgaris; [7]) | MIC against S. marcescens (Serratia marcescens; [8]) | MIC against M. catarrhalis (Moraxella catarrhalis; [9]) | MIC against E. cloacae (Enterobacter cloacae; [10]) | MIC against P. aeruginosa (Pseudomonas aeruginosa; [11]) | MIC against C. diversus (Citrobacter diversus; [12]) | MIC against K. pneumonia (Klebsiella pneumonia; [13]) | MIC against E. coli BL21 (E. coli BL21; [14]) | MIC against A. hydrophila (Aeromonas hydrophila; [15]) | MIC against P. mirabilis (Proteus mirabilis; [16]) | MIC against P. vulgaris (Proteus vulgaris; [17]) | MIC against S. marcescens (Serratia marcescens; [18]) | MIC against M. catarrhalis (Moraxella catarrhalis; [19]) | further results
PRT1248 (SACYCSATSRCDPQTGACLCHAGWWGRSCN; listed as Homo sapiens) | 25 µg/mL | 25 µg/mL | 25 µg/mL | 25 µg/mL | 12.5 µg/mL | 25 µg/mL | 25 µg/mL | 12.5 µg/mL | 25 µg/mL | 12.5 µg/mL | 12.5 µg/mL | – | – | – | – | – | – | – | – | – | –
PRT1265 (DVDECLENNGGCQHTCVNVMGSYECCCKEGFFLSDNQHTCI; listed as Homo sapiens) | 25 µg/mL | 25 µg/mL | 12.5 µg/mL | 50 µg/mL | 50 µg/mL | 25 µg/mL | 12.5 µg/mL | 50 µg/mL | 12.5 µg/mL | 12.5 µg/mL | 25 µg/mL | – | – | – | – | – | – | – | – | – | –
PRT1417 (RACHPRCAEHGTCRDGKCECSPGWNGEHCT; listed as Homo sapiens) | – | – | – | – | – | 25 µg/mL | – | – | – | – | – | 12.5 µg/mL | 25 µg/mL | 50 µg/mL | 12.5 µg/mL | 50 µg/mL | 25 µg/mL | 50 µg/mL | 25 µg/mL | 12.5 µg/mL | MIC against E. cloacae (Enterobacter cloacae; [20]): 12.5 µg/mL
PRT1123 (QLTGCQGHTCPLAATCIPIFESGVHSYVCHCPPGTHGPFCG; listed as Homo sapiens) | – | – | – | – | – | 25 µg/mL | – | – | – | – | – | – | – | – | – | – | – | – | – | – | MIC P. aeruginosa (Pseudomonas aeruginosa; [21]): 25 µg/mL; MIC C. diversus (Citrobacter diversus; [21]): 12.5 µg/mL; MIC K. pneumonia (Klebsiella pneumonia; [21]): 12.5 µg/mL; MIC E. coli BL21 (E. coli BL21; [21]): 50 µg/mL; MIC A. hydrophila (Aeromonas hydrophila; [21]): 50 µg/mL; MIC P. mirabilis (Proteus mirabilis; [21]): 50 µg/mL; MIC P. vulgaris (Proteus vulgaris; [21]): 25 µg/mL; MIC S. marcescens (Serratia marcescens; [21]): 12.5 µg/mL; MIC M. catarrhalis (Moraxella catarrhalis; [21]): 25 µg/mL; MIC E. cloacae (Enterobacter cloacae; [21]): 25 µg/mL
PRT1457 (CQCHGHADNCDTTSQPYRCLCSQESFTEGLHCDRCLPLYNDKPFRQGDQVYAFNCKP; listed as Homo sapiens) | – | – | – | – | – | 12.5 µg/mL | – | – | – | – | – | 12.5 µg/mL | 12.5 µg/mL | 100 µg/mL | 25 µg/mL | 12.5 µg/mL | 25 µg/mL | 12.5 µg/mL | 25 µg/mL | 12.5 µg/mL | MIC against E. cloacae (Enterobacter cloacae; [20]): 12.5 µg/mL
PRT76 (EVDLCYSRPCGPHGRCRSREGGYTCLCRDGYTGEHCE; listed as Homo sapiens) | – | – | – | – | – | 25 µg/mL | – | – | – | – | – | – | – | – | – | – | – | – | – | – | MIC (μg/mL) P. aeruginosa (Pseudomonas aeruginosa; [1]): 25 µg/mL; MIC (μg/mL) C. diversus (Citrobacter diversus; [2]): 25 µg/mL; MIC (μg/mL) K. pneumonia (Klebsiella pneumonia; [3]): 12.5 µg/mL; MIC (μg/mL) E. coli BL21 (E. coli BL21; [4]): 12.5 µg/mL; MIC (μg/mL) A. hydrophila (Aeromonas hydrophila; [5]): 12.5 µg/mL; MIC (μg/mL) P. mirabilis (Proteus mirabilis; [6]): 12.5 µg/mL; MIC (μg/mL) P. vulgaris (Proteus vulgaris; [7]): 12.5 µg/mL; MIC (μg/mL) S. marcescens (Serratia marcescens; [8]): 50 µg/mL; MIC (μg/mL) M. catarrhalis (Moraxella catarrhalis; [9]): 100 µg/mL; MIC (μg/mL) E. cloacae (Enterobacter cloacae; [10]): 25 µg/mL

From US9833497B2, “Human originated EGF domain proteins and use of the same” (CHENGDU SOURCEBIO LIMITED-LIABILITY COMPANY, priority 2013, dated 2017)
